Experimental data reported in US11696913B2, “Prolonged ectoparasite-controlling agent for animal” (MITSUI CHEMICALS AGRO, INC., priority 2017, dated 2023).

Experiments:
Laodelphax striatellus = assay: Insecticidal testing against small brown planthopper; format: in vivo; conditions: 144 h, concentration 100 ppm, sprayed rice seedlings, after 6 days, read-out: pesticidal rate
Method: Insecticidal Testing Against Small Brown Planthopper (Laodelphax striatellus)
An additional test was carried out with 10 small brown planthoppers by preparing an acetone solution of the testing compound diluted to a predetermined concentration, spraying the solution onto rice seedlings and air drying the rice seedlings. The medicament was all used as received. The rice seedlings were placed in a constant-temperature room at 25° C., and the survival rate was investigated after 6 days. The test was carried out by means of one group of 10 pests.

Ctenocephalides felis [1] = assay: Ctenocephalides felis in-vitro feeding test with fleas (CTECFE oral); conditions: 48 hours, read-out: insecticidal feeding activity; for pest or weed control at 0.0064 ppm: dose 0.0064 ppm in citrated cattle blood; for pest or weed control at 0.032 ppm: dose 0.032 ppm in citrated cattle blood; for pest or weed control at 0.16 ppm: dose 0.16 ppm in citrated cattle blood; for pest or weed control at 0.8 ppm: dose 0.8 ppm in citrated cattle blood; for pest or weed control at 4 ppm: dose 4 ppm in citrated cattle blood
Outline: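 Scored as percent fleas killed (0–100%) 48 hours after feeding began. Compound, dissolved in DMSO and diluted into citrated cattle blood, was offered via a parafilm membrane to roughly 20 adult male and female C. felis at about 37° C.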

Spodoptera litura = assay: Insecticidal testing against common cutworm; format: in vivo; conditions: foliar, 144 h, concentration 100 ppm, cabbage leaf dip, second-stage larvae, after 6 days, read-out: pesticidal rate
Text: Insecticidal Testing Against Common Cutworm (Spodoptera litura)

Plutella xylostella = assay: Insecticidal testing against diamondback moth; format: in vivo; conditions: foliar, 144 h, concentration 100 ppm, cabbage leaf dip, third-stage larvae, after 6 days, read-out: pesticidal rate
Text: Insecticidal Testing Against Diamondback Moth (Plutella xylostella)

[2] = system: Rhipicephalus (Boophilus) microplus; assay: In vitro injection test with Rhipicephalus (Boophilus) microplus (BOOPMI Inj); conditions: 168 h, laid fertile eggs after 7 days, read-out: acaricidal activity; for pest or weed control at 0.00016 mg: dose 0.16 μg/animal injected; for pest or weed control at 0.0008 mg: dose 0.8 μg/animal injected; for pest or weed control at 32 ng: dose 0.032 μg/animal injected
Outline: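 Five engorged adult females each get a 1 μl abdominal injection of compound dissolved and diluted in DMSO. Kept 7 days at 28° C./85% rel. hum.; percent activity rates egg laying and egg fertility (0% all fertile, 100% none laid or infertile).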

Dermacentor variabilis = assay: In vitro contact test with adult hard ticks (Dermacentor variabilis); conditions: read-out: acaricidal activity; for pest or weed control at 0.2 µg/cm2, 0.2 µg/cm2: dose 0.2 μg/cm^2, 48 h; for pest or weed control at 1 µg/cm2, 1 µg/cm2: dose 1 μg/cm^2, 48 h
Outline: (§1)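 Acaricidal activity = % ticks dead or moribund after 48 h contact with acetone-deposited compound on vial walls (e.g., 900 ppm solution → 5 μg/cm^2). Ambient conditions for R. sanguineus, 21° C./85% rel. hum. for other species; heat challenge at 45-50° C. separated climbers from moribund ticks.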

Ctenocephalides felis [3] = assay: In vitro contact test with fleas; conditions: read-out: insecticidal activity; for pest or weed control at 0.04 µg/cm2, 0.04 µg/cm2: dose 0.04 μg/cm^2, dead or moribund fleas after 48 h; for pest or weed control at 0.2 µg/cm2, 0.2 µg/cm2: dose 0.2 μg/cm^2, dead or moribund fleas after 48 h; for pest or weed control at 1 µg/cm2, 1 µg/cm2: dose 1 μg/cm^2, dead or moribund fleas after 48 h
Outline: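 Activity is the percentage of fleas dead or moribund at 48 h, judged by immobility or uncoordinated movement after tapping. Tubes were coated by evaporating acetone solutions (900 ppm gives 5 μg/cm^2), then held 5-10 adult fleas of both sexes at room temperature and ambient humidity.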

Rhipicephalus sanguineus = assay: In vitro contact test with adult hard ticks (Rhipicephalus sanguineus); conditions: read-out: acaricidal activity; for pest or weed control at 0.2 µg/cm2, 0.2 µg/cm2: dose 0.2 μg/cm^2, 48 h; for pest or weed control at 1 µg/cm2, 1 µg/cm2: dose 1 μg/cm^2, 48 h
Outline: as §1

SMILES	pest or weed control at 100 ppm (Laodelphax striatellus)	pest or weed control at 0.0064 ppm (Ctenocephalides felis [1])	pest or weed control at 0.032 ppm (Ctenocephalides felis [1])	pest or weed control at 0.16 ppm (Ctenocephalides felis [1])	pest or weed control at 0.8 ppm (Ctenocephalides felis [1])	pest or weed control at 4 ppm (Ctenocephalides felis [1])	pest or weed control at 100 ppm (Spodoptera litura)	pest or weed control at 100 ppm (Plutella xylostella)	pest or weed control at 0.00016 mg [2]	pest or weed control at 0.0008 mg [2]	pest or weed control at 0.2 µg/cm2, 0.2 µg/cm2 (Dermacentor variabilis)	pest or weed control at 1 µg/cm2, 1 µg/cm2 (Dermacentor variabilis)	pest or weed control at 0.04 µg/cm2, 0.04 µg/cm2 (Ctenocephalides felis [3])	pest or weed control at 0.2 µg/cm2, 0.2 µg/cm2 (Ctenocephalides felis [3])	pest or weed control at 1 µg/cm2, 1 µg/cm2 (Ctenocephalides felis [3])	pest or weed control at 0.2 µg/cm2, 0.2 µg/cm2 (Rhipicephalus sanguineus)	pest or weed control at 1 µg/cm2, 1 µg/cm2 (Rhipicephalus sanguineus)	pest or weed control at 32 ng [2]
CSc1ccc(C(=O)N(C)c2cccc(C(=O)Nc3c(I)cc(C(F)(C(F)(F)F)C(F)(F)F)cc3C(F)(F)F)c2F)cc1 [Compound 53]	≥ 70%	95%	95%	95%	95%	95%	≥ 70%	≥ 70%	100%	100%	90%	90%	95%	95%	95%	–	–	–
CN(C(=O)c1ccc([N+](=O)[O-])cc1)c1cccc(C(=O)Nc2c(I)cc(C(F)(C(F)(F)F)C(F)(F)F)cc2C(F)(F)F)c1F [Compound 54]	≥ 70%	–	95%	95%	95%	95%	≥ 70%	≥ 70%	100%	100%	90%	90%	95%	95%	95%	90%	90%	100%
CN(C(=O)c1ccc(C#N)cc1)c1cccc(C(=O)Nc2c(Br)cc(C(F)(C(F)(F)F)C(F)(F)F)cc2OC(F)(F)F)c1F [Compound 88]	≥ 70%	–	95%	95%	95%	95%	≥ 70%	≥ 70%	100%	100%	90%	90%	–	95%	95%	90%	90%	100%
CN(C(=O)c1ccc(S(C)(=O)=O)cc1)c1cccc(C(=O)Nc2c(I)cc(C(F)(C(F)(F)F)C(F)(F)F)cc2C(F)(F)F)c1F [Compound 49]	≥ 70%	95%	95%	95%	95%	95%	≥ 70%	≥ 70%	100%	100%	–	–	95%	95%	95%	–	–	–
CN(C(=O)c1ccc(OC(F)(F)F)cc1)c1cccc(C(=O)Nc2c(I)cc(C(F)(C(F)(F)F)C(F)(F)F)cc2C(F)(F)F)c1F [Compound 61]	≥ 70%	–	–	–	95%	95%	≥ 70%	≥ 70%	100%	100%	–	–	–	95%	95%	–	–	–
CN(C(=O)c1ccc(Cl)c(Cl)c1)c1cccc(C(=O)Nc2c(I)cc(C(F)(C(F)(F)F)C(F)(F)F)cc2C(F)(F)F)c1F [Compound 44]	≥ 70%	–	–	95%	95%	95%	≥ 70%	≥ 70%	100%	100%	90%	90%	–	95%	95%	90%	90%	–
CN(C(=O)c1ccc(C(F)(F)F)nc1)c1cccc(C(=O)Nc2c(Br)cc(C(F)(C(F)(F)F)C(F)(F)F)cc2OC(F)(F)F)c1F [Compound 98]	≥ 70%	–	–	–	95%	95%	≥ 70%	≥ 70%	100%	100%	90%	90%	–	95%	95%	–	–	–
CN(C(=O)c1ccc(F)cc1)c1cc(C(=O)Nc2c(Cl)cc(C(F)(C(F)(F)F)C(F)(F)F)cc2C(F)(F)F)ccc1F [Compound 83]	≥ 70%	–	95%	95%	95%	95%	≥ 70%	≥ 70%	100%	100%	–	–	95%	95%	95%	–	–	–
CN(C(=O)c1ccc(C(F)(F)F)nc1)c1cccc(C(=O)Nc2c(I)cc(C(F)(C(F)(F)F)C(F)(F)F)cc2OC(F)F)c1F [Compound 107]	≥ 70%	–	95%	95%	95%	95%	≥ 70%	≥ 70%	100%	100%	90%	90%	95%	95%	95%	90%	–	100%
